Results published in patent US12577257B2, “Heterocyclic compounds” (Hoffmann-La Roche Inc., priority 2018, dated 2026).
pIC50: −log10 of the molar value.

Target: T1, MAGL (recombinant wild-type) (Homo sapiens, UniProt Q99685)
T1 sequence (Q99685 1-303): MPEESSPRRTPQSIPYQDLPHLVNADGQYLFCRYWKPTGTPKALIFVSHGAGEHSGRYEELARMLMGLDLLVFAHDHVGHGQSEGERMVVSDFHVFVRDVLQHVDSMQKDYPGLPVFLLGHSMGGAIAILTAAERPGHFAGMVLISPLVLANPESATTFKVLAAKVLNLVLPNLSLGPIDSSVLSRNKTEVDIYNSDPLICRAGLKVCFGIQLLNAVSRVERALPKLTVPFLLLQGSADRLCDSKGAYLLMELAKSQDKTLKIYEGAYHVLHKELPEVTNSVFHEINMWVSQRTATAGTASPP
Test: 4-NPA assay: MAGL hydrolysis of 4-nitrophenylacetate, absorbance at 405 nm
Type: biochemical
Conditions: footnote [b]: measured in 4-NPA assay
Protocol: (§1) Compounds were profiled for MAGL inhibitory activity by measuring the enzymatic activity of MAGL by following the hydrolysis of 4-nitrophenylacetate resulting in 4-nitrophenol, which absorbs at 405-412 nm (G. G. Muccioli, G. Labar, D. M. Lambert, Chem. Bio. Chem. 2008, 9, 2704-2710). This assay is hereinafter abbreviated “4-NPA assay”.
(§2) The 4-NPA assay was carried out in 384 well assay plates (black with clear bottom, non-binding surface treated, Corning Ref. 3655) in a total volume of 40 μL. Compound dilutions were made in 100% DMSO (VWR Chemicals 23500.297) in a polypropylene plate in 3-fold dilution steps to give a final concentration range in the assay from 25 μM to 1.7 nM. 1 μL compound dilutions (100% DMSO) were added to 19 μL MAGL (recombinant wild-type) in assay buffer (50 mM TRIS (GIBCO, 15567-027), 1 mM EDTA (Fluka, 03690-100 ml)). The plate was shaked for 1 min at 2000 rpm (Variomag Teleshake) and then incubated for 15 min at RT. To start the reaction, 20 μL 4-Nitrophenylacetate (Sigma N-8130) in assay buffer with 6% EtOH was added. The final concentrations in the assay were 1 nM MAGL and 300 μM 4-Nitrophenylacetate. After shaking (1 min, 2000 rpm) and 5 min incubation at RT, the absorbance at 405 nm was measured for a first time (Molecular Devices, SpectraMax Paradigm). A second measurement was then done after incubation for 80 min at RT. From the two measurements, the slope was calculated by subtracting the first from the second measurement.

pIC50 | Compound
6.08 | O=C1CO[C@H]2CCN(C(=O)N3CCC4(CC3)CN(S(=O)(=O)c3ccc(F)cc3)CCO4)C[C@H]2N1 (racemic) [Example 21, rac-(4aR,8aS)-6-(4-((4-Fluorophenyl)sulfonyl)-1-oxa-4,9-diazaspiro[5.5]undecane-9-carbonyl)hexahydro-2H-pyrido[4,3-b][1,4]oxazin-3(4H)-one]
6.27 | CC(C)(C)OC(=O)N1CC2(CCN(C(=O)N3CC[C@@H]4OCC(=O)N[C@@H]4C3)C2)C1 (racemic) [Int-1, rac-tert-Butyl 6-((4aR,8aS)-3-oxooctahydro-2H-pyrido[4,3-b][1,4]oxazine-6-carbonyl)-2,6-diazaspiro[3.4]octane-2-carboxylate]
5.57 | O=C1CO[C@H]2CCN(C(=O)N3CCC4(C3)CN(C(c3ccccc3)c3ccccc3)C4)C[C@H]2N1 (racemic) [Example 20, rac-(4aR,8aS)-6-(2-Benzhydryl-2,6-diazaspiro[3.4]octane-6-carbonyl)hexahydro-2H-pyrido[4,3-b][1,4]oxazin-3(4H)-one]
6.22 | O=C1CO[C@H]2CCN(C(=O)N3CCC4(CC3)CN(S(=O)(=O)c3ccccc3)C4)C[C@H]2N1 [Example 39, (4aR,8aS)-6-(2-(Phenylsulfonyl)-2,7-diazaspiro[3.5]nonane-7-carbonyl)hexahydro-2H-pyrido[4,3-b][1,4]oxazin-3(4H)-one]

Target: T2, MAGL (Homo sapiens, UniProt Q99685)
T2 sequence (Q99685 1-303): T1 sequence (Q99685 1-303)
Test: MAGL inhibition, Table 1 values with no assay marker (2-AG or 4-NPA assay not stated)
Type: biochemical
Conditions: not given
Protocol: as §1, §2
Alternatively, compounds were profiled for MAGL inhibitory activity by determining the enzymatic activity by following the hydrolysis of the natural substrate 2-arachidonoylglycerol resulting in arachidonic acid, which can be followed by mass spectrometry. This assay is hereinafter abbreviated “2-AG assay”.
The 2-AG assay was carried out in 384 well assay plates (PP, Greiner Cat #784201) in a total volume of 20 μL. Compound dilutions were made in 100% DMSO (VWR Chemicals 23500.297) in a polypropylene plate in 3-fold dilution steps to give a final concentration range in the assay from 12.5 μM to […]. 0.25 μL compound dilutions (100% DMSO) were added to 9 μL MAGL in assay buffer (50 mM TRIS (GIBCO, 15567-027), 1 mM EDTA (Fluka, 03690-100 ml), 0.01% (v/v) Tween. After shaking, the plate was incubated for 15 min at RT. To start the reaction, 10 μL 2-arachidonoylglycerol in assay buffer was added. The final concentrations in the assay was […] and 8 μM 2-arachidonoylglycerol. After shaking and 30 min incubation at RT, the reaction was quenched by the addition of 40 μL of acetonitrile containing 4 μM of d8-arachidonic acid. The amount of arachidonic acid was traced by an online SPE system (Agilent Rapidfire) coupled to a triple quadrupole mass spectrometer (Agilent 6460). A C18 SPE cartridge (G9205A) was used in an acetonitrile/water liquid setup. The mass spectrometer was operated in negative electrospray mode following the mass transitions 303.1→259.1 for arachidonic acid and 311.1→267.0 for d8-arachidonic acid. The activity of the compounds was calculated based on the ratio of intensities [arachidonic acid/d8-arachidonic acid].

pIC50 | Compound
6.53 | CC(C)Oc1ccc(N2CC3(CCN(C(=O)N4CC[C@@H]5OCC(=O)N[C@@H]5C4)C3)C2)cc1 [Example 59, (4aR,8aS)-6-(2-(4-isopropoxyphenyl)-2,6-diazaspiro[3.4]octane-6-carbonyl)hexahydro-2H-pyrido[4,3-b][1,4]oxazin-3(4H)-one]
7.43 | O=C1CO[C@H]2CCN(C(=O)N3CC4(CC(c5ccc(C(F)(F)F)cc5F)C4)C3)C[C@H]2N1 [Example 45, (4aR,8aS)-6-(6-(2-fluoro-4-(trifluoromethyl)phenyl)-2-azaspiro[3.3]heptane-2-carbonyl)hexahydro-2H-pyrido[4,3-b][1,4]oxazin-3(4H)-one]
6.65 | Cn1nccc1-c1ccc(C2CC3(C2)CN(C(=O)N2CC[C@@H]4OCC(=O)N[C@@H]4C2)C3)cc1 [Example 48, (4aR,8aS)-6-(6-(4-(1-methyl-1H-pyrazol-5-yl)phenyl)-2-azaspiro[3.3]heptane-2-carbonyl)hexahydro-2H-pyrido[4,3-b][1,4]oxazin-3(4H)-one]
5.96 | O=C1CO[C@H]2CCN(C(=O)N3CC4(C3)CN(c3cc(C(F)(F)F)ccc3C(F)(F)F)C4)C[C@H]2N1 [Example 65, (4aR,8aS)-6-(6-(2,5-bis(trifluoromethyl)phenyl)-2,6-diazaspiro[3.3]heptane-2-carbonyl)hexahydro-2H-pyrido[4,3-b][1,4]oxazin-3(4H)-one]
